Measurements from patent US20240018146A1, “COMPOSITIONS AND METHODS OF USING THE SAME FOR TREATMENT OF NEURODEGENERATIVE AND MITOCHONDRIAL DISEASE” (MITOKININ, INC., priority 2020, published 2024).
Values after ≈ are worked out from the molar mass of the structure shown. Where two headings read alike, the source gives them in different places.

What was measured:
[1] = tested on: HeLa MKYP cells; assay: Cell death measured by DAPI staining, with 1 μM FCCP/oligomycin or no toxin (no FO); type: cell-based; conditions: for E105 death at 8.3 μM (no FO): 8.3 μM compound; for Max cell death at 25 μM compound, 1 uM FO (%) / Cell death at 25 μM (no FO) (%) / E104 death at 25 μM (no FO): 25 μM compound
Procedure, shortened: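 Cell death was read by DAPI staining after 6–6.5 h compound exposure in HeLa MKYP cells, either with 1 μM FCCP/oligomycin or without toxin. H2O2 served as the cell-death control.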

[2] = Kinetic solubility; type: physicochemical
[3] = tested on: HeLa MKYP cells; assay: Human mitophagy assay (HeLa mKeima assay, FACS); type: cell-based; conditions: for EC50: Homo sapiens, HeLa
Procedure, shortened: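 Mitophagy, read by FACS as the share of cells showing the lysosomal mtKeima emission shift, followed 6 h of 1 uM FCCP/oligomycin stimulation. Before that, HeLa MKYP cells spent 16 h with compound over a concentration range.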

[4] = Mitotoxicity / Mitotox safety margin (therapeutic window); type: cell-based; conditions: for mitotoxicity: FIG. 5-7
[5] = Inspection of crystallization and round cells; type: physicochemical; parameters: key: 1=yes crystals; 0=no crystals
Procedure: 5. Inspection of Crystallization and Round Cells
Briefly, the Hela MKYP (Mito-Keima/YFP-Parkin) cells were seeded at 10K cells/well. EP/MTK compounds were added at seeding (cells were still in suspension). The cells were incubated with the EP/MTK compounds for 16 hours, then 1 μM FCCP/oligomycin was added for 6 hours. Prior to harvesting, cells were scored by eye under 20× magnification for the presence or absence of crystalline or aggregated compound, or round cells.

[6] = HeLa mKeima assay, read-out: Mitophagy EC50 (HeLa mKeima assay)
[7] = mitophagy, 1 μM FCCP/oligomycin, read-out: E100 EC50
[8] = read-out: Mitophagy induction EC50
[9] = mitophagy, 1 μM FCCP/oligomycin

Row | Structure (SMILES) | Max cell death at 25 μM compound, 1 uM FO (%) [1] [%] | Cell death at 25 μM (no FO) (%) [1] [%] | Highest safe dose (cytotoxicity; no FO; safe means DAPI+ <20%) [1] [µM] | Max % death with 1 μM FO [1] [%] | solubility kinetic [2] [µM] | EC50 [3, 6] [µM] | EC50 [3, 8] [µM] | also measured
1 | FC(F)(F)c1cc2c(N[C@@H]3c4ccccc4CC[C@H]3N3CCOCC3)ncnc2[nH]1 (racemic) [EP-0037821] | 71.62 | 41.03 | 13.9 | 68.5 | 14.1 (≈ 5.89 µg/mL) | 0.4 | 0.38 | E105 death at 8.3 μM (no FO) [1]: 2.87; E104 death at 25 μM (no FO) [1]: 25.17; E103 max death with 1 μM FO [1]: 62.82; E102 max mitophagy, fold over DMSO ([3]; 1 μM FCCP/oligomycin): 9.53 fold over DMSO; EC50 [3, 7]: 0.45 µM; E101 lowest effective dose [3, 9]: 0.30 µM; Mitotox safety margin (Therapeutic window) [4]: ++++ (++++ = 30<); Mito-Safety Index (highest safe dose/EC50) [4]: 22.05; Highest safe dose (μM) (mitotox or cytotox) [4]: 8.3 µM
2 | c1ccc2c(c1)CC[C@H](N1CCOCC1)[C@H]2Nc1ncnc2[nH]c(C3CC3)cc12 (racemic) [EP-0039677] | 10.2 | 3.02 | 25.0 | 10.2 | 1.56 (≈ 0.608 µg/mL) | 0.21 | 0.21 | Mitotox safety margin (Therapeutic window) [4]: ++++ (++++ = 30<); Mito-Safety Index (highest safe dose/EC50) [4]: 13.51; Highest safe dose (μM) (mitotox or cytotox) [4]: 2.8 µM
3 | FC(F)(F)c1cc2c(N[C@@H]3c4ccccc4CC[C@H]3N3CCOCC3)ncnc2[nH]1 (single isomer, unassigned) [EP-0038099] | 13.7 | 4.11 | – | – | 14.1 (≈ 5.89 µg/mL) | – | – | E105 death at 8.3 μM (no FO) [1]: 2.41; E104 death at 25 μM (no FO) [1]: 4.11; E103 max death with 1 μM FO [1]: 13.71; E102 max mitophagy, fold over DMSO ([3]; 1 μM FCCP/oligomycin): 7.78 fold over DMSO; Mitophagy EC50 (HeLa mKeima assay) (μM) ([3]; HeLa mKeima assay): Minimal; E101 lowest effective dose [3, 9]: 25.00 µM
4 | O=C1COCCN1[C@H]1CCc2ccccc2[C@@H]1Nc1ncnc2[nH]c(C(F)(F)F)cc12 (single isomer, unassigned) [EP-0038378] | 15.4 | 4.55 | 25.0 | 15.4 | 3.02 (≈ 1.3 µg/mL) | 2.77 | > 25 | –
5 | FC(F)(F)c1cc2c(N[C@H]3c4ccccc4CC[C@@H]3N3CCCCC3)ncnc2[nH]1 (single isomer, unassigned) [EP-0038392] | 23.2 | 3.1 | 25.0 | 23.2 | 187 (≈ 77.7 µg/mL) | 2.77 | > 25 | –
6 | FC1(F)CCN([C@H]2CCc3ccccc3[C@@H]2Nc2ncnc3[nH]c(C(F)(F)F)cc23)CC1 (single isomer, unassigned) [EP-0038393] | 17.6 | 1.98 | 25.0 | 17.6 | 1 (≈ 0.451 µg/mL) | 2.43 | > 25 | –
7 | Fc1ccc2c(c1)CC[C@H](N1CCOCC1)[C@H]2Nc1ncnc2[nH]c(C(F)(F)F)cc12 (single isomer, unassigned) [EP-0038503] | 8.15 | 2.53 | 25.0 | 6.3 | 1.56 (≈ 0.679 µg/mL) | 0.38 | 0.48 | E103 max death with 1 μM FO [1]: 4.37; E102 max mitophagy, fold over DMSO ([3]; 1 μM FCCP/oligomycin): 5.11 fold over DMSO; EC50 ([3]; average ± spread, read-out: E100 EC50 (μM) (average)): 0.48 ± 0.1 µM; EC50 [3, 7]: 0.58 µM; E101 lowest effective dose [3, 9]: 8.33 µM; Mitotox safety margin (Therapeutic window) [4]: ++ (++ = 10 < x < 20); mitotoxicity [4]: low mitotoxicity; Mito-Safety Index (highest safe dose/EC50) [4]: 17.40; Highest safe dose (μM) (mitotox or cytotox) [4]: 8.3 µM
8 | Fc1ccc2c(c1)CC[C@@H](N1CCOCC1)[C@@H]2Nc1ncnc2[nH]c(C(F)(F)F)cc12 (single isomer, unassigned) [EP-0038504] | 4.59 | 3.1 | 25.0 | 4.6 | 1.56 (≈ 0.679 µg/mL) | 14.2 | 14.2 | E105 death at 8.3 μM (no FO) [1]: 2.93; E104 death at 25 μM (no FO) [1]: 3.10; E103 max death with 1 μM FO [1]: 4.59; E102 max mitophagy, fold over DMSO ([3]; 1 μM FCCP/oligomycin): 4.67 fold over DMSO; EC50 [3, 7]: 14.2 µM; E101 lowest effective dose [3, 9]: 8.33 µM; Mitotox safety margin (Therapeutic window) [4]: + (+ = <10); mitotoxicity [4]: low mitotoxicity; Mito-Safety Index (highest safe dose/EC50) [4]: 1.76; Highest safe dose (μM) (mitotox or cytotox) [4]: 25.0 µM
9 | FC(F)(F)c1cc2c(N[C@H]3c4ccccc4CC[C@@H]3N3CC4(COC4)C3)ncnc2[nH]1 [EP-0038249] | 37.3 | 3.69 | 25.0 | 37.3 | 157 (≈ 67.4 µg/mL) | 2.73 | > 25 | –
10 | COC1CCN([C@H]2CCc3ccccc3[C@@H]2Nc2ncnc3[nH]c(C(F)(F)F)cc23)CC1 [EP-0038282] | 97.5 | 66.6 | 2.8 | 97.5 | 134 (≈ 59.7 µg/mL) | – | > 25 | Mitophagy EC50 (HeLa mKeima assay) (μM) ([3]; HeLa mKeima assay): Minimal
11 | FC(F)(F)c1cc2c(N[C@H]3c4ccccc4CC[C@@H]3N3C4CCC3COC4)ncnc2[nH]1 [EP-0038283] | 98 | 9.6 | 8.3 | 98.0 | 1 (≈ 0.443 µg/mL) | – | > 25 | Mitophagy EC50 (HeLa mKeima assay) (μM) ([3]; HeLa mKeima assay): Minimal
12 | CN(CC1CCOCC1)[C@H]1CCc2ccccc2[C@@H]1Nc1ncnc2[nH]c(C(F)(F)F)cc12 [EP-0038394] | 61 | 11.4 | 8.3 | 61.0 | 7.05 (≈ 3.24 µg/mL) | 8.26 | > 25 | –
13 | c1ccc2c(c1)CC[C@H](N1CCOCC1)[C@H]2Nc1ncnc2[nH]cnc12 [EP-0039678] | 2.27 | 1.77 | – | – | 164 (≈ 57.5 µg/mL) | – | – | Mitophagy EC50 (HeLa mKeima assay) (μM) ([3]; HeLa mKeima assay): Minimal
14 | c1coc(CNc2ncnc3[nH]cnc23)c1 [Kinetin, kinetin, reference compound] | – | – | – | – | – | – | – | visual inspection of crystallization ([5]; 0.1 μM compound): 0; visual inspection of crystallization ([5]; 0.3 μM compound): 0; visual inspection of crystallization ([5]; 0.9 μM compound): 0; visual inspection of crystallization ([5]; 2.8 μM compound): 0; visual inspection of crystallization ([5]; 8.3 μM compound): 0; visual inspection of crystallization ([5]; 25.0 μM compound, HeLa MKYP culture, 20× magnification): 0
